Experimental data from paper PMC4277420, “Assessment of [^125I]WYE-230949 as a Novel Histamine H3 Receptor Radiopharmaceutical” (PLoS ONE, 2014).
Like-named read-outs stand apart in the source and are kept apart here.

Experiments:
[1] = target: rat histamine H3 receptors; design: method as in earlier work; conditions: rat histamine H3 receptor; cited from earlier work
[2] = target: human histamine H3 receptors; design: method as in earlier work; conditions: human histamine H3 receptor; cited from earlier work
[3] = cited from earlier work
[4] = design: method as in PMID 19910432; conditions: porcine brain, 20 min post injection; cited from earlier work
[5] = cited from earlier work; remark: listed apart in the source
[6] = design: method as in PMID 16934699; conditions: rats, 5 min post injection; cited from earlier work
[7] = design: method as in PMID 16934699, PMID 17998102; conditions: cited from earlier work
[8] = target: T1, rat histamine H3 receptor (Rattus norvegicus, UniProt Q9QYN8); conditions: rat striatum; cited from earlier work
T1 construct: from tissue; host or cells: whole brain of male Sprague-Dawley rats, homogenate pellet
T1 sequence (Q9QYN8 whole entry): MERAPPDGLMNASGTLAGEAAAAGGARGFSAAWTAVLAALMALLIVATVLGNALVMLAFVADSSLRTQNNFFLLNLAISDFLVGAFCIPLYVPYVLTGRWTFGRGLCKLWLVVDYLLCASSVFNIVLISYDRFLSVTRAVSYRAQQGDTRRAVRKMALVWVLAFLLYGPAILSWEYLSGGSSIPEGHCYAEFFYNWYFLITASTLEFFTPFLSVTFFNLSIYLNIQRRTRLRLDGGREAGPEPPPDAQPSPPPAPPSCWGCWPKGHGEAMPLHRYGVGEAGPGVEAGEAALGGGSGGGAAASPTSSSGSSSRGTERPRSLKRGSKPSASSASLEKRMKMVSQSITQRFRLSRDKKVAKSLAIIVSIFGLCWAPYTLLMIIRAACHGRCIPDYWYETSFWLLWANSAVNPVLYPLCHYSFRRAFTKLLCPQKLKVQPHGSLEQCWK

[9] = cited from earlier work; remark: listed apart in the source
[10] = target: T1, rat histamine H3 receptor; assay: In vitro saturation radioligand binding to rat brain homogenates; conditions: whole rat brain homogenates, one-site binding model, n = 8
Procedure: Animals (male Sprague-Dawley rats; Harlan, UK) were killed by cervical dislocation. Whole brains were immediately excised and placed into ice-cold Tris-HCl buffer (Tris […], pH 7.4; EDTA 5 mM), homogenised and centrifuged at approx 40,000 g for 10 min at 4°C (Beckman J2-21M/E). The pellet was resuspended in 25 ml of buffer and centrifuged as previously, then the final pellet was resuspended in 10 ml of ice cold Tris buffer and stored at −50°C until required. Protein content was analysed using Bio-Rad reagent; absorbance was read on a spectrophotometer at 562 nm. [^125I]WYE230949 binding assays were carried out in a final incubation volume of 500 µl containing Tris-HCl buffer (Tris […], pH 7.4; EDTA 5 mM), brain homogenates (1.47 to 2.27 mg/ml of protein) and [^125I]WYE230949 (0.04–102 nM). Non-specific binding was defined in the presence of 10 µM iodophenpropit. Samples were incubated at 30°C for 30 min, then filtered rapidly through Whatman GF/B filters (pre-treated with 0.3% polyethylenimine; Aldrich, UK) using a Brandel M24R cell harvester and the filters washed with 3×4 ml ice-cold Tris buffer. Radioactivity on the filters was determined by liquid scintillation counting a minimum of 48 h after filtration. All assays were performed in triplicate. Specific binding was determined by subtracting non-specific binding from total binding at each concentration; Kd and Bmax values derived using GraphPad Prism (version 4.03), and expressed as mean ±SEM of the triplicate assays.

O=C(c1ccc(Cn2cnc3cccc(I)c32)cc1)N1CC[C@H](N2CCCC2)C1 [WYE-230949]
Ki [1]: 5.7 nM
Ki [2]: 0.3 nM

[11CH3]NC(=O)c1ccc(Oc2ccc3c(c2)CCN(C2CCC2)CC3)nc1 [[^11C]GSK189254]
parent remaining in plasma ([3]; 30 minutes post injection): 58%
parent remaining in plasma ([3]; after 90 min): 55%
brain uptake [4]: 9.0 %ID/L
LogD [5]: 1.7

C(#Cc1cccc([11CH2]N2CCOCC2)c1)CCN1CCCCC1 [[^11C]JNJ-10181457, 4-[3-(4-piperidin-1-yl-but-1-ynyl)-[^11C]benzyl]-morpholine]
brain uptake [6]: 1.38 %ID/g
parent remaining in the brain ([7]; 30 min post injection): greater than 80%

[18F]c1ccc(COCCCc2cnc[nH]2)cc1 [[^18F]fluoroproxyfan]
parent remaining in plasma ([3]; 30 minutes post injection): 43%
parent remaining in the brain ([7]; 30 min post injection): 94%
parent remaining in the brain ([7]; 120 min post injection): 68%

[123I]c1ccc(COCCCc2cnc[nH]2)cc1 [[^123I]iodoproxyfan]
Bmax [8]: 78 fmol/mg of protein
peak brain uptake [9]: ~1.5 %ID/g

O=C(c1ccc(Cn2cnc3cccc(I)c32)cc1)N1CC[C@H](N2CCCC2)C1 [[^125I]WYE-230949]
Kd [10]: 6.9 nM
